Reference: US7169604B1, “Method for PR-39 peptide mediated selective inhibition of IκBα degradation” (Beth Israel Deaconess Medical Center, priority 1998, dated 2007)
Peptide text beside a SMILES is read from it. * marks the point of attachment. Cbz = O=C(OCc1ccccc1)*

Key:
Format in all cases: cell-based, human
[1] = tested on: IκBα; test: IκBα protein levels in ECV304 cells by Western blotting; conditions: ECV304 cells, 2 hr, 10 μM
Procedure: For IκBα expression studies, normally proliferating wild type ECV304 cells (ECV) or ECV-PR-39 and ECV-E4 cells were lysed in the loading buffer, subjected to electrophoresis on 10% SDS-PAGE gel and transferred to a PVDF membrane. IκBα expression was then determined by Western blotting with anti-IκBα antibody (Santa Cruz, Inc.). ECV304 cells treated for 2 hr with 10 μM of lactacystin (LC) were used as control.
Western blotting of ECV cell lysate was carried out following 2 hr exposure to buffer (0) or 100 or 50 nM of PR-39. […] Clearly, exposure of wild type ECV304 cells to the synthetic PR-39 peptide led to a dose-dependent increase in IκBα levels.

[2] = tested on: IκBα; test: TNF-α induced degradation of IκBα in U937 cells; conditions: 45 min pretreatment with 10 μM, TNF-α 1 ng/ml, 10 min
Procedure: Tumor necrosis factor (TNF)-α is known to induce rapid degradation of IκBα by the Ub-proteasome pathway.
As shown by FIG. 1E, PR-39 prevents TNF-a induced degradation of IκBα. U937 cells were cultured in 10% FBs-RPMI medium in the absence (−) or presence of TNF-a (1 ng/ml). 10 min following TNF-α addition, the cells were washed and IκBα protein levels assessed by Western blotting.
Note that a […] 45 min of pretreatment with 100 nM of PR-39 or 10 μM of MG132 or lactacystin (LC) prior to addition of blocked TNF-α, blocked cytokine-induced degradation of IκBα expression.

[3] = tested on: IκBα; test: Reversibility of inhibition of IκBα degradation after washout in U937 cells; conditions: 10 μM for 45 min, washed, 45 min later TNF-α 1 ng/ml, 10 min
Procedure: In parallel cells were exposed to MG132, a rapidly reversible competitive inhibitor of the proteasome or with lactacystin which covalently and irreversibly modifies the active site threonine residues. The results are shown by FIG. 1F.
U937 cells were pretreated with 100 nM of PR-39, 10 μM of either MG132 or lactacystin (LC) or buffer (Control) for 45 min. These cells were then extensively washed with fresh medium. 45 min later TNF-α (1 ng/ml) was added to medium, and the extent of IκBα degradation was determined 10 min later by Western blotting.

[4] = tested on: NFκB; test: NFκB-dependent luciferase reporter (pNFκB-Luc) in ECV304 cells; conditions: 45 min pretreatment with 10 μM, TNF-α 1 ng/ml
Procedure: The results are presented by FIG. 2A.
The effect of PR-39-mediated inhibition of IκBα degradation on NFκB-dependent transcription was tested in ECV304 cells transiently transfected with pNFκB-Luc reporter vector.

[5] = tested on: U937 cells; test: Proteasome-dependent degradation of total cellular proteins (35S Met pulse-chase); conditions: Homo sapiens, U-937, 1 hr chase, chloroquin 45 μM, after 16 hr metabolic labeling, read-out: inhibition of total cell protein degradation
Procedure: Therefore the extent of degradation of long-lived cell proteins before or following exposure was compared to either PR-39 or MG132. The result is given by FIG. 3A.
Exponentially proliferating U937 cells were grown in 10% FBS-RPMI 1640 methionine-free medium supplemented with 200 μCi ^35S Met for 16 hr. Cells were then washed with complete RPMI 1640 medium 3 times and cultured in 10% FBS-RPMI (chase) in the presence of 10 μM of either PR-39 or MG132 or an equal volume of PBS. Chloroquin (45 μM) was added to all cultures to prevent the lysosomal protein degradation. 1 hr later the cells were lysed, and TCA soluble ^35S counts were measured in a liquid scintillation counter (LKB). All experiments were carried out in triplicate and repeated three times. The data are shown as mean±standard deviation.

[6] = tested on: HSP70; test: HSP70 expression by Western blotting

Row | SMILES | IκBα levels [1] | TNF-α caused decline of the level of IκBα [2] | extent of IκBα degradation after washout [3] | TNF-α induced increase in luciferase activity [4] | inhibition at 10 µM [5] [%] | HSP70 expression ([6]; U937 cells, 1 μM, 3 hr exposure) | HSP70 levels ([6]; cultured ECV304 cells, 10 μM)
1 | CC(=O)N[C@@H](CSC(=O)[C@]1([C@@H](O)C(C)C)NC(=O)[C@H](C)[C@@H]1O)C(=O)O [lactacystin] | increased IκBα levels | markedly reduced | irreversibly blocked proteasome-mediated degradation of IκBα | completely blocked |  |  | 
2 | CC(C)C[C@@H](C=O)NC(=O)[C@H](CC(C)C)NC(=O)[C@H](CC(C)C)NC(=O)OCc1ccccc1 [MG132, reference compound] (Cbz-Leu-Leu-Leu-aldehyde) |  | markedly reduced | complete disappearance of IκBα protein | completely blocked | ~50 | appearance of HSP70 expression | striking increase in HSP70 levels
